Results published in ChEMBL document CHEMBL1641501, “Discovery of selective irreversible inhibitors for EGFR-T790M” (Bioorg Med Chem Lett, 2011).
The source made the active and inactive calls. The rule behind the calls is not given here.

Experiments:
[1] = system: PC-9; test: Antiproliferative activity against growth-resistant human PC9 cells expressing EGFR E746_A750/T790M mutant; format: functional, cell-based
[2] = system: PC-9; test: Antiproliferative activity against EGFR-deficient human PC9 cells; format: functional, cell-based
[3] = target: T1, Tyrosine-protein kinase JAK3 (Homo sapiens) (UniProt P52333); test: Inhibition of Jak3 transfected with TEL fusion in mouse BA/F3 cells; format: cell-based; details: BaF3
T1 sequence (whole entry): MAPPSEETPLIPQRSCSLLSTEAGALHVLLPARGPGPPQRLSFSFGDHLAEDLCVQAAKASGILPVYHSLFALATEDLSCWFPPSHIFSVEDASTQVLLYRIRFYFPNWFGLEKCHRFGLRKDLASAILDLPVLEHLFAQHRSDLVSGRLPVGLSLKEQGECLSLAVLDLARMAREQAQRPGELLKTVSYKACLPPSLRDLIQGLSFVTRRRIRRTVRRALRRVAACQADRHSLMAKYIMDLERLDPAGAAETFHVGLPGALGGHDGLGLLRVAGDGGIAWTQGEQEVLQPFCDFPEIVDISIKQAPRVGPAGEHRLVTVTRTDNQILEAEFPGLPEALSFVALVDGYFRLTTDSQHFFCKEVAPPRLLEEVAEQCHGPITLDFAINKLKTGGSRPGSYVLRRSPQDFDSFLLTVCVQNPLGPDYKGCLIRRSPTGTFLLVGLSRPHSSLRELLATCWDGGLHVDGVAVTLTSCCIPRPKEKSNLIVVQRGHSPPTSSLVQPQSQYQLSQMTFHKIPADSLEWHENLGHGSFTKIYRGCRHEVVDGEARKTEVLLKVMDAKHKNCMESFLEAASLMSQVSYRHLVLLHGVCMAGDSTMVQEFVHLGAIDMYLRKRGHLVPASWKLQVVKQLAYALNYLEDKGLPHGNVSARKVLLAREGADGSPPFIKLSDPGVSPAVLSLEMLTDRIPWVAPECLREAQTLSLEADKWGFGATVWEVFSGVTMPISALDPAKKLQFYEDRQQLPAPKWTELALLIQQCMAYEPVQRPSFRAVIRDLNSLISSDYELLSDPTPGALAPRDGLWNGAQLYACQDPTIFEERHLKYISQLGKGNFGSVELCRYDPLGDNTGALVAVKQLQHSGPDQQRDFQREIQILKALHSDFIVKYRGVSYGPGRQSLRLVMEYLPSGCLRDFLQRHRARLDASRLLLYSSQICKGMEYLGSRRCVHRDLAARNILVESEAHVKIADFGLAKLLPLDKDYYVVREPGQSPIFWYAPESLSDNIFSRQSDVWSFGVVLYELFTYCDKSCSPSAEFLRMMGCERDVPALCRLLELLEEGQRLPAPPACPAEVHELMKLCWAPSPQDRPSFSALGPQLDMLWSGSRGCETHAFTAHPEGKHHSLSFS

[4] = target: Tyrosine-protein kinase Blk (Homo sapiens) (UniProt P51451); test: Inhibition of Blk transfected with TEL fusion in mouse BA/F3 cells; format: cell-based; details: BaF3
[5] = Antiproliferative activity against mouse BA/F3 cells transfected with EGFR L858R/T790M/C797S mutant; format: functional, cell-based; details: BaF3
[6] = Antiproliferative activity against mouse BA/F3 cells transfected with EGFR E746_A750_del/T790M/C797S mutant; format: functional, cell-based; details: BaF3
[7] = Antiproliferative activity against mouse BA/F3 cells transfected with EGFR E746_A750_del/T790M mutant; format: functional, cell-based; details: BaF3
[8] = target: T2, Cytoplasmic tyrosine-protein kinase BMX (Homo sapiens) (UniProt P51813); test: Inhibition of Bmx transfected with TEL fusion in mouse BA/F3 cells; format: cell-based; details: BaF3
T2 sequence (whole entry): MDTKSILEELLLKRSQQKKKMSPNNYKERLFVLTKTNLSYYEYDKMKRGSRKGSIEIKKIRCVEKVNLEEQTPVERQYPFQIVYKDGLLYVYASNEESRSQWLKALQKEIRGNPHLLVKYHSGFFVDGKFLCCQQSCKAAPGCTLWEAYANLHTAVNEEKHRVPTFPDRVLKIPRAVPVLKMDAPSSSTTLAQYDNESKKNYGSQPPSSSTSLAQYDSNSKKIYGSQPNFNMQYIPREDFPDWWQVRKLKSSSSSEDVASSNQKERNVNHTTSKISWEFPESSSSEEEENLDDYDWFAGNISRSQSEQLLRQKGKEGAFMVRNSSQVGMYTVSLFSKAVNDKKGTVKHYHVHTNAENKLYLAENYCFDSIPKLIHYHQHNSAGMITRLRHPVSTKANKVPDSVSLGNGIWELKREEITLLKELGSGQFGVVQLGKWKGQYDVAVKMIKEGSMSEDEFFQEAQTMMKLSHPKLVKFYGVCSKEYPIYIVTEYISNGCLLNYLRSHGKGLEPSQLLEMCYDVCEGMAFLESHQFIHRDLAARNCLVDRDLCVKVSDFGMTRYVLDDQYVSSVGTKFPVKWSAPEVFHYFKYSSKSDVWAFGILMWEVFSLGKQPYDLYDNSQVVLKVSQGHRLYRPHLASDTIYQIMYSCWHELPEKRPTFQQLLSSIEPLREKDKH

[9] = Antiproliferative activity against mouse BA/F3 cells transfected with EGFR E746_A750/T790M mutant; format: functional, cell-based; details: BaF3
[10] = Antiproliferative activity against mouse BA/F3 cells transfected with EGFR L858R/T790M mutant; format: functional, cell-based; details: BaF3

Chain of Tyrosine-protein kinase Blk (Homo sapiens) (P51451 2-505 limits assumed): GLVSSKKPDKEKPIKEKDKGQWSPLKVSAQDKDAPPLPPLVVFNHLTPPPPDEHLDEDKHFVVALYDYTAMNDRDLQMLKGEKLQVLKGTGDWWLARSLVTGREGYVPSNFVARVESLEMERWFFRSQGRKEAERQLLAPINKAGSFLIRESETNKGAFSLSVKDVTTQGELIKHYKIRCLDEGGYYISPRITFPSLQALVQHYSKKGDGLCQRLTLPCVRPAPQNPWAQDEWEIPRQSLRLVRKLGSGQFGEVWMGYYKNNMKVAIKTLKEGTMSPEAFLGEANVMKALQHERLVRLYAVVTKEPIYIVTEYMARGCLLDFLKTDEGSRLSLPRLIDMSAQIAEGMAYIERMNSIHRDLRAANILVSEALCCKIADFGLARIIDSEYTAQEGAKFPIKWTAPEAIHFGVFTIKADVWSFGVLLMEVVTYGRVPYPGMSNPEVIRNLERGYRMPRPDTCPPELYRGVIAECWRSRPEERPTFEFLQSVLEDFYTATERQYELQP

For C=CC(=O)Nc1cccc(Oc2nc(Nc3ccc(N4CCN(C)CC4)cc3)ncc2Br)c1, the EC50 [1] was 900 nM and the EC50 [2] was 800 nM.

In the case of C=CC(=O)N1CCCC(Nc2nc(Nc3ccc(C(=O)N4CCN(C)CC4)cc3)nc3[nH]cnc23)C1 (centres undefined), the EC50 [1] is reported as 10000 nM and the EC50 [2] is reported as 10000 nM.

For C=CC(=O)Nc1cccc(Sc2nc(Nc3ccc(N4CCN(C)CC4)cc3OC)ncc2Cl)c1, the EC50 [1] was 20 nM and the EC50 [2] was 20 nM.

Work on C=CC(=O)N1CCCC(N(C)c2nc(Nc3ccc(N(C)C(=O)CC)cc3)nc3[nH]cnc23)C1 (centres undefined) yielded an EC50 [1] of 6000 nM and an EC50 [2] of 900 nM.

In the case of C=CC(=O)Nc1cccc(Oc2nc(Nc3ccc(C4=CCN(C)CC4)cc3OC)ncc2Cl)c1, the EC50 [1] is reported as 200 nM.

In the case of C=CC(=O)Nc1cccc(Oc2nc(Nc3ccc(N4CCN(C)CC4)cc3)ncc2Cl)c1, the EC50 [1] is reported as 3 nM and the EC50 [2] is reported as 15 nM.

Compound C=CC(=O)Nc1ccc(Oc2ncnc3[nH]cc(-c4cnc5ccccc5c4)c23)cc1 has an EC50 [1] of 10000 nM and an EC50 [2] of 10000 nM.

C=CC(=O)Nc1cccc(Oc2nc(Nc3ccc(CN4CCN(C)CC4)cc3)ncc2Cl)c1 showed an EC50 [1] of 30 nM.

C=CC(=O)Nc1cccc(Oc2nc(Nc3ccc(F)cc3OC)ncc2Cl)c1 gave an EC50 [1] of 800 nM.

Compound C=CC(=O)Nc1cccc(Oc2[nH]cnc3ncc(-c4cnc5ccccc5c4)c2-3)c1 has an EC50 [1] of 8000 nM and an EC50 [2] of 6000 nM.

C=CC(=O)Nc1ccc(Oc2ncnc3[nH]cc(-c4cccnc4)c23)cc1 gave an EC50 [1] of 6000 nM and an EC50 [2] of 6000 nM.

C=CC(=O)Nc1cccc(Oc2nc(Nc3ccc(C(=O)NC4CCN(C)CC4)cc3)ncc2Cl)c1 gave an EC50 [1] of 1000 nM and an EC50 [2] of 800 nM.

In the case of C=CC(=O)Nc1cccc(Oc2nc(Nc3ccc(N4CCN(C)CC4)cc3OC)ncc2Cl)c1, the EC50 [1] is reported as 14 nM, the inhibition [3] is reported as “Active” and the inhibition [4] is reported as “Active”. It also gave an EC50 [2] of 36 nM, an EC50 [5] greater than 3300 nM and an EC50 [6] greater than 3300 nM. The EC50 [7] was 2 nM, the inhibition [8] was “Active” and the EC50 [9] was 1290 nM. It also gave an EC50 [10] of 8 nM.

Compound C=CC(=O)N1CCCC(Nc2nc(Nc3ccc(N(C)C(=O)CC)cc3)nc3[nH]cnc23)C1 (centres undefined) has an EC50 [1] of 10000 nM and an EC50 [2] of 7000 nM.

C=CC(=O)Nc1cccc(Oc2nc(Nc3ccc(CCN4CCN(C)CC4)cc3)ncc2Cl)c1 gave an EC50 [1] of 8 nM.

Compound C=CC(=O)Nc1cccc(Oc2nc(Nc3ccc(C4CCCN(C)C4)cc3OC)ncc2Cl)c1 (centres undefined) has an EC50 [1] of 200 nM and an EC50 [2] of 100 nM.

For C=CC(=O)Nc1cccc(Nc2nc(Nc3ccc(N4CCN(C)CC4)cc3OC)ncc2Cl)c1, the EC50 [1] was 20 nM and the EC50 [2] was 40 nM.

With C=CC(=O)Nc1cccc(Oc2nc(Nc3ccc(C(=O)NCCN4CCOCC4)cc3OC)ncc2Cl)c1 the EC50 [1] was 500 nM.

C=CC(=O)Nc1cccc(Oc2nc(Nc3ccc(N4CCN(C)CC4)cc3)ncc2C(F)(F)F)c1 gave an EC50 [1] of 800 nM and an EC50 [2] of 700 nM.

With C=CC(=O)Nc1cccc(Oc2nc(Nc3ccc(C(=O)N4CCN(C)CC4)cc3)ncc2Cl)c1 the EC50 [1] was 800 nM and the EC50 [2] was 800 nM.

For C=CC(=O)Nc1cccc(Oc2nc(Nc3ccc(C(=O)NC4CCN(C)CC4)cc3OC)ncc2Cl)c1, the EC50 [1] was 800 nM and the EC50 [2] was 500 nM.

C=CC(=O)N1CCCC(Nc2nc(Nc3ccc(N4CCN(C)CC4)cc3)nc3[nH]cnc23)C1 (centres undefined) showed an EC50 [1] of 5000 nM and an EC50 [2] of 1000 nM.

With C=CC(=O)Nc1cccc(Sc2nc(Nc3ccc(N4CCN(C)CC4)cc3)ncc2Cl)c1 the EC50 [1] was 8 nM and the EC50 [2] was 6 nM.

C=CC(=O)Nc1cccc(Oc2nc(Nc3ccc(CC(=O)N4CCN(C)CC4)cc3)ncc2Cl)c1 gave an EC50 [1] of 50 nM.

Compound C=CC(=O)Nc1cccc(Oc2ncnc3[nH]cc(-c4ccc(OC)cc4)c23)c1 has an EC50 [1] of 6000 nM and an EC50 [2] of 6000 nM.

In the case of C=CC(=O)Nc1cccc(Oc2nc(Nc3ccc(N4CCN(C)CC4)cc3OC)ncc2Cl)c1Cl, the EC50 [1] is reported as greater than 1000 nM and the EC50 [2] is reported as greater than 1000 nM.

C=CC(=O)Nc1cccc(Oc2nc(Nc3ccc(C4CCN(C)CC4)cc3OC)ncc2Cl)c1 gave an EC50 [1] of 40 nM and an EC50 [2] of 100 nM.

With C=CC(=O)Nc1cccc(Oc2nc(Nc3ccc(N4CCN(C)CC4)cc3C(F)(F)F)ncc2Cl)c1 the EC50 [1] was 90 nM.

With C=CC(=O)Nc1cccc(Oc2nc(Nc3ccc(N4CCOCC4)cc3OC)ncc2Cl)c1 the EC50 [1] was 150 nM.

Work on C=CC(=O)Nc1cc(F)cc(Oc2nc(Nc3ccc(N4CCN(C)CC4)cc3OC)ncc2Cl)c1 yielded an EC50 [1] of 20 nM.

In the case of C=CC(=O)Nc1cccc(Oc2nc(Nc3ccc(-c4ccncc4)cc3OC)ncc2Cl)c1, the EC50 [1] is reported as 900 nM.

Work on C=CC(=O)Nc1cccc(Oc2ccnc(Nc3ccc(N4CCN(C)CC4)cc3)n2)c1 yielded an EC50 [1] greater than 1000 nM and an EC50 [2] of 80 nM.

In the case of C=CC(=O)Nc1cccc(Oc2nc(Nc3ccc(C(=O)N4CCN(C)CC4)cc3OC)ncc2Cl)c1, the EC50 [1] is reported as greater than 1000 nM and the EC50 [2] is reported as greater than 1000 nM.

Work on C=CC(=O)Nc1cccc(Oc2nc(Nc3ccc(N4CCC(O)CC4)cc3OC)ncc2Cl)c1 yielded an EC50 [1] of 800 nM and an EC50 [2] of 200 nM.

In the case of C=CC(=O)Nc1cccc(Oc2nc(Nc3ccc(CN4CCN(C)CC4)cc3C(F)(F)F)ncc2Cl)c1, the EC50 [1] is reported as 420 nM.

Compound C=CC(=O)Nc1cccc(Oc2nc(Nc3ccc(N4CCC(N5CCN(C)CC5)CC4)cc3OC)ncc2Cl)c1 has an EC50 [1] of 100 nM and an EC50 [2] of 80 nM.

For C=CC(=O)Nc1cccc(Oc2nc(Nc3ccc(N4CCN(C)CC4)cc3OC)ncc2Cl)c1F, the EC50 [1] was 31 nM.

In the case of C=CC(=O)Nc1cccc(Oc2nc(Nc3ccc(N4CCN(C)CC4)cc3)nc3[nH]cnc23)c1, the EC50 [1] is reported as 600 nM and the EC50 [2] is reported as 300 nM.

For C=CC(=O)Nc1cccc(Oc2ncnc3[nH]cc(-c4cccnc4)c23)c1, the EC50 [1] was 500 nM and the EC50 [2] was 500 nM.
